Here are results for 9 compounds from US20130172324A1, “METHOD FOR TREATING CARDIOVASCULAR DISEASES USING RHO KINASE INHIBITOR COMPOUNDS” (priority 2008, published 2013).

Read-outs that look alike come from different tables or passages of the source.

The test system of data set [1] is ova-sensitized, ova-challenged mice. Put plainly: Bronchodilator assay in ovalbumin-sensitized mice (Penh, methacholine). It is filed as in vivo, mouse. The settings on record: for log10AUC (penh): bronchodilator dosing paradigm. How it is done:
Male BALB/c mice were ordered from Charles River Laboratories (Raleigh, N.C.). The animals were approximately 19 to 21 grams at time of receipt. Upon arrival, the animals were randomized into groups of five males per cage and assigned to a dosing group. Animals were quarantined for 7 days under test conditions. They were observed daily for general health status and ability to adapt to the water bottles.
Animals were sensitized on day 0 and 14 of study by an intraperitoneal injection with 20 μg of ovalbumin (ova) and 2.0 mg aluminum hydroxide (alum) which initiates the development of a specific T-helper (Th) cells type 2 resulting in asthmatic animals. One group of animals received an injection of saline to use as non-asthmatic control animals. All animals were challenged with aerosolized 1% ova once daily for 25 minutes on days 28, 29, and 30 (Zosky, et al. Respiratory Research. 2004; 5:15). Aerosol challenge consists of using an Aerogen Aeroneb nebulizer and controller with a particle size of 4-6 μm mass median aerodynamic diameter (MMAD) with a distribution of 400 μl per minute. This aerosol challenge is necessary to target the Th2-driven allergic inflammation in the lower airways.
The test compounds and the control vehicle were administered to animals on the day of airway hyperreactivity evaluation 30 minutes to 1 hour before the evaluation to determine the bronchodilator effects of the compounds according to the bronchodilator dosing paradigm (FIG. 8). Compounds were administered p.o. (orally), i.p. (intraperitoneally) at 15 μMol/kg unless otherwise noted (Table 6). Alternatively, compounds were administered i.t. (intratracheally) at varying doses as shown (FIG. 9). On day 32 of the experiment, airway hyperreactivity was evaluated by placing conscious, unrestrained animals in a whole body plethysmometer (Buxco Wilmington, N.C.) and exposing them to escalating doses of nebulized methacholine, a known bronchial constrictor which acts through the muscarinic receptors of the lungs, (doses: 0.325-50 mg/ml). Exposure to the methacholine doses consisted of a 3 minute period during which a nebulizer was aerosolizing the methacholine and an additional 3 minute period following the cessation of nebulization. Over this 6 minute period, the plethysmometer monitors and generates numerical values for all parameters of the breath pattern. Enhanced pause (Penh), a unitless index of airway hyperreactivity, is derived from the expiratory side of the respiratory waveform measured via the plethysmograph and is used as an indirect measure of airway resistance and hyperreactivity. […] Following the methacholine dose response, all animals were anesthetized, bled and euthanized.
Within each experiment, a mouse was given a single compound and exposed to increasing doses of methacholine [0 (baseline), 0.375, 0.75, 1.5, 3, 6, 12, 25, 50 mg/ml]. The Penh value at each of the dose levels of methacholine represents the 6-minute average response. Change from baseline (CFB) in Penh was calculated at each methacholine dose and the area under the curve (AUC) for these CFB values was calculated using the trapezoidal rule. This same approach was applied for each mouse across multiple experiments.
For statistical analyses, a linear mixed-effects model where the response was the log 10 transformed value of AUC described above was used. Data from equal experimental conditions across experiments performed on different days were pooled for statistical analysis and data reporting. The various compounds were compared adjusting for the log 10-transformed baseline value of Penh and the chamber (1 of 10) of the plethysmometer each mouse was contained in during an experiment. A random intercept for each experiment was assumed to account for possible similarities of the results obtained from a given experiment (i.e., as a “blocking effect”). […] Computations were performed using PROC MIXED (SAS Version 9.1). […]

A further data set has as its system rat trachea rings. Nature of the data set: Tracheal relaxation assay (carbachol precontracted rings).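 As to all read-outs here: isometric tension of rat tracheal rings in Krebs buffer with 1 µM indomethacin, compounds added cumulatively at 30 min intervals, basal tension subtracted, fit to Hill equation.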 The settings on record: for Percentage of carbachol-induced contraction at 1 μM compound, Avg % / Percentage of carbachol-induced contraction at 10 μM compound, Avg %: 1 μM carbachol; for IC50: read-out: IC50 Avg; for Trachael Ring Contraction, %: average percentage of carbachol-induced rat tracheal ring contraction at 1 μM of test compound.

Data set [2] in a line: Rat oral pharmacokinetics (plasma). It is filed as in vivo.
Description: Plasma (EDTA K2 anticoagulant) was collected from male, cannulated, CD Sprague Dawley rats to determine the pharmacokinetics of formulations containing compound inhibitors of Rho kinase. Each animal was dosed orally with a 4 ml/kg solution or suspension of each test compound in 10 mM acetate buffered saline, pH 4.5 at a final concentration range of 20-30 μmol/kg. Blood was collected at 0.25, 0.5, 1, 2, 4, 6, 8, and 24 hours. Plasma samples were assayed for the concentration of the test compound using an on-line, solid phase extraction LC/MS/MS analysis system.
Samples were analyzed on a QSTAR Elite, hybrid quadrupole time-of-flight mass spectrometer (Applied Biosystems, Framingham, Mass.) coupled with a Symbiosis Pharma integrated, on-line SPE-HPLC system (Spark Holland Inc., Plainsboro, N.J.). Analyst QS 2.0 software was used for instrument control, data acquisition and processing. […] Mobile Phase A consisted of 0.1% ammonium hydroxide in water and Mobile Phase B consisted of 0.1% formic acid in acetonitrile. Pharmacokinetic analyses were performed using WinNonlin software version 5.2 (Pharsight Corporation, Mountain View, Calif.).
As determined from the plasma concentration versus time curves, the time to peak and peak exposure are represented by the values Tmax and Cmax, respectively. The AUC values (nM*hr) shown were calculated as the areas under the plasma concentration versus time curves from time zero through the time of the last observable value and represent the total exposure of the compound over the course of the study. Half-life values or the amount of time required for the plasma levels of the compound to decline to half the initial value are represented as t1/2.
The target in another data set is T1, ERK2 (Homo sapiens, UniProt P28482).
T1 construct: purchased Upstate, Millipore Bioscience Division (KinaseProfiler service)
T1 sequence (P28482 whole entry): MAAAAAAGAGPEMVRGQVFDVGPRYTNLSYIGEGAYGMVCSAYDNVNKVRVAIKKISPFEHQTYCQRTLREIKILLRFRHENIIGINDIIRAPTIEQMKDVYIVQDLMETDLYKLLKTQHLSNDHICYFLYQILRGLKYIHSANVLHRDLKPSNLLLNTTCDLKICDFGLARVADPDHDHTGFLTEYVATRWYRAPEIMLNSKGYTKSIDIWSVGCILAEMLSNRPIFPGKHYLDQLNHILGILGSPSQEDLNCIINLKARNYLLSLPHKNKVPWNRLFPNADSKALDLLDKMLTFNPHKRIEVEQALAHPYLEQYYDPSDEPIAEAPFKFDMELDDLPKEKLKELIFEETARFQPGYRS
Nature of the data set: Kinase panel screen (KinaseProfiler), ERK2. It is filed as biochemical. The settings on record: 10 μM ATP. How it is done: (§1) Compounds of Formulae I and II were examined for activity against a selected panel of kinases using the KinaseProfiler™ enzyme profiling services (Upstate, Millipore Bioscience Division). Percent kinase activity at 10 μM and 1 μM test compound and 10 μM ATP was determined against 40 wild-type recombinant human kinases according to Upstate's standard protocol: ASK1, BTK, CSK, c-RAF, GCK, GSK3β, IKKα, IKKβ, IRAK1, IRAK4, JNK1α1, JNK2α2, JNK3, ERK1, ERK2, MAPKAP-K2, MAPKAP-K3, MEK1, MKK4, MKK6, MKK7β, Mnk2, MSK1, PAK3, PDK1, PRAK, ROCK1, Rsk2, SAPK2a, SAPK2b, SAPK3, SAPK4, SRPK1, SRPK2, Syk, TAK1, TBK1, PI3-Kβ, PI3-Kγ, PI3-Kδ.

The target in another data set is T2, ERK1 (Homo sapiens, UniProt P27361).
T2 construct: purchased Upstate, Millipore Bioscience Division (KinaseProfiler service)
T2 sequence (P27361 whole entry): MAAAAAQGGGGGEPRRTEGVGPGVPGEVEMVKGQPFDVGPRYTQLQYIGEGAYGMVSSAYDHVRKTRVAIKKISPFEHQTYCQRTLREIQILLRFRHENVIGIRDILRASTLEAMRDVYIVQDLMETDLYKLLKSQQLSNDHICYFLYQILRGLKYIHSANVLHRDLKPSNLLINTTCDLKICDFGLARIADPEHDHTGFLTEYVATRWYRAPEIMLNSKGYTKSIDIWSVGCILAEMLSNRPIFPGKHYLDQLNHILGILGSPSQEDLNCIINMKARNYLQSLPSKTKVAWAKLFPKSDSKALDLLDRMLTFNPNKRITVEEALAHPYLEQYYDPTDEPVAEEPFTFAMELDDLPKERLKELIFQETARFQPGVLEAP
Put plainly: Kinase panel screen (KinaseProfiler), ERK1. It is filed as biochemical. The settings on record: 10 μM ATP. How it is done:
as §1

Data set [3] has as its system cytokine secretion from LPS-stimulated human monocytes. Put plainly: Human monocyte cytokine secretion assay (LPS). It is filed as cell-based.
Description: Peripheral blood from healthy human volunteers was collected and the monocytes isolated via Ficoll-paque density centrifugation. […] The cells were allowed to pre-incubate with test compound at the indicated concentration for 30 minutes (37° C., 5% CO2, humidified air); after which the supernatant was removed and media containing compound and 1 ng/mL LPS was added. Cells were allowed to incubate with compounds and LPS for 4 hours at 37° C. after which the supernatant was removed and stored at −80° C. Cytokine concentrations in the supernatant were determined using commercially available Bio-Rad Bio-plex™ kits according the manufacturer's instructions.
For data set [4], the system named is ova-sensitized, ova-challenged mice. Put plainly: Prevention of airway hyperreactivity development, anti-inflammatory dosing paradigm (Penh). It is filed as in vivo, mouse. The settings on record: intratracheal once a day, days 27 to 30 (1.091) or 27 to 31.
Where [5] appears, read: rat, oral, 20-30 μmol/kg, plasma, mean of n = 3.

Description for rat trachea rings: The effects of compounds to induce relaxation of pre-contracted rat trachealis were determined. […] Trachea were excised, cleaned of connective tissue and cut into cylindrical segments of 2-3 mm length. Two stainless steel wires were guided through the lumen of the tracheal ring. One wire was fixed in the tissue bath and the other was connected to a force transducer via surgical silk. […] Indomethacin (1 μM), a cyclooxygenase inhibitor, was added to the Krebs buffer and was present throughout the experiments. Contractile tensions were measured using an isometric force transducer (Grass Instruments) and signals were analyzed using specialized software (Chart v5.5, ADInstruments). The preparations were allowed to equilibrate at a resting tension of 0.3 to 0.5 gm prior to two challenges with 60 mM KCl to assess tissue viability. After washing, tissues were treated with 1 μM carbachol for 10 to 15 minutes to induce a contractile response. Test Compounds were added cumulatively to the bath every 30 minutes and reductions in tension were recorded. Basal tension was subtracted from all values and data were reported as a percentage of the maximal carbachol-induced contraction. Data were fit to the Hill equation using GraphPad Prism v5 software.

Take `NCc1cccc(CN2CCC[C@@H](Nc3ccc4[nH]ncc4c3)C2)c1` [Compound 1.235, (R)-N-(1-(3-(aminomethyl)benzyl)piperidin-3-yl)-1H-indazol-5-amine]: the “log10AUC (penh)” value in data set [1] (15 μmol/kg intraperitoneal) was 1.9362.
For `C[C@@H](N)[C@H]1CC[C@H](C(=O)Nc2ccncc2)CC1` [Compound Y-27632, reference compound], the “log10AUC (penh)” value in data set [1] (30 μmol/kg oral) is recorded as 2.0135. In the data set on rat trachea rings, the “Percentage of carbachol-induced contraction at 1 μM compound, Avg %” value (shortened to “Percentage … at 1 μM compound, Avg %”) came out at 83.7% and the “Percentage of carbachol-induced contraction at 10 μM compound, Avg %” value (“Percentage … at 10 μM compound, Avg %” below) came out at 23.4%. Besides, the IC50 in the data set on rat trachea rings (relaxation of 1 μM carbachol precontracted rat tracheal rings) is 4780 nM.
As to `OCCOc1cccc(CN2CCC[C@@H](Nc3ccc4[nH]ncc4c3)C2)c1` [Compound 1.092, (R)-2-(3-((3-(1H-indazol-5-ylamino)piperidin-1-yl)methyl)phenoxy)ethanol], in the data set with rat trachea rings, the “Percentage … at 1 μM compound, Avg %” value came out at 67.7% and the “Percentage … at 10 μM compound, Avg %” value was −2.9%. Also, in the data set with rat trachea rings (Rattus norvegicus), the IC50 stood at 453 nM. For the same compound, the Vz_F in data set [2] (setting [5]) came to 19.0 L/kg.
On to `NC(=O)Cn1ccc2cc(CN3CCC[C@@H](Nc4ccc5[nH]ncc5c4)C3)ccc21` [Compound 1.162, (R)-2-(5-((3-(1H-indazol-5-ylamino)piperidin-1-yl)methyl)-1H-indol-1-yl)acetamide], for which the “log10AUC (penh)” value in data set [1] (15 μmol/kg intraperitoneal) stood at 1.7001. Besides, the figures for the “Percent inhibition, ERK2” value on ERK2 (1 μM test compound) and on ERK2 (10 μM test compound) were 89% and 60%, respectively. Also, the “Percentage … at 1 μM compound, Avg %” value with rat trachea rings was 34.4%. For the same compound, in the data set on rat trachea rings, the “Trachael Ring Contraction, %” value amounted to 34%. In addition, the “Percent inhibition, ERK1” value on ERK1 (1 μM test compound) came out at 84%; at ERK1 (10 μM test compound), 50%.
Take `CCc1ccc(CN2CCC[C@@H](Nc3ccc4[nH]ncc4c3)C2)cc1` [Compound 1.136, (R)-N-(1-(4-ethylbenzyl)piperidin-3-yl)-1H-indazol-5-amine]: the “log10AUC (penh)” value in data set [1] (15 μmol/kg intraperitoneal) turned out to be 2.1379. Moreover, in data set [1] (15 μmol/kg oral), the “log10AUC (penh)” value worked out at 2.2490. In addition, the “reduction in airway hyperresponsiveness” value in data set [1] (i.p. route, compared to oral dosing) is reported as “enhanced reduction”. Moreover, the “reduction in airway hyperresponsiveness” value in data set [1] (oral doses) is listed as “did not yield a significant reduction”. In the data set on rat trachea rings, the “Percentage … at 1 μM compound, Avg %” value stood at 45.0%; the “Percentage … at 10 μM compound, Avg %” value turned out to be 19.7%; the “Trachael Ring Contraction, %” value stood at 45%. For the same compound, the IC50 with rat trachea rings (Rattus norvegicus) is 861 nM. In addition, the “oral bioavailability” value in data set [2] (oral dosing) was “poor oral bioavailability”. For the same compound, in data set [2] (setting [5]), the “AUC (0-last)” value was “BLQ”, the Cmax entry was “BLQ”, the Tmax result is “BLQ” and the Vz_F result is given as “BLQ”. Besides, the t½ entry in data set [2] (setting [5]) is “BLQ”.
Turning to `NS(=O)(=O)c1cccc(CN2CCC[C@H](Nc3ccc4[nH]ncc4c3)C2)c1` [Compound 1.215, (S)-3-((3-(1H-indazol-5-ylamino)piperidin-1-yl)methyl)benzenesulfonamide], the “log10AUC (penh)” value in data set [1] (15 μmol/kg intraperitoneal) is 2.0081. In the data set on rat trachea rings, the “Percentage … at 1 μM compound, Avg %” value is on record as 40.6% and the “Trachael Ring Contraction, %” value is recorded as 41%.
For `Cc1ccc(CN2CC[C@@H](Nc3cccc4cnccc34)C2)cc1` [Compound 2.025, (R)-N-(1-(4-methylbenzyl)pyrrolidin-3-yl)isoquinolin-5-amine] the same measures were 1.9667, 33.3% and 33%.
For `Cc1ccc(CN2CC[C@@H](Nc3cccc4cnccc34)C2)cc1OCCO` [Compound 2.064, (R)-2-(5-((3-(isoquinolin-5-ylamino)pyrrolidin-1-yl)methyl)-2-methylphenoxy)ethanol], the IL-1β % in data set [3] (4 h, 10 µM) is recorded as 14.3%; in data set [3] (average percent of stimulated IL-1β secretion from human monocytes at 10 μM of test compound) it was 14.3%. Besides, the IL-6, % in data set [3] (4 h, 10 µM) turned out to be 45.7%; in data set [3] (average percent of stimulated IL-6 secretion from human monocytes at 10 μM of test compound), 45.7%. Besides, the TNF-α % in data set [3] (4 h, 10 µM) is 66.2%; in data set [3] (average percent of stimulated TNF-α secretion from human monocytes at 10 μM of test compound), 66.2%.
On to `Cc1ccc(CN2CCC[C@@H](Nc3ccc4[nH]ncc4c3)C2)cc1OCCO` [Compound 1.161, (R)-2-(5-((3-(1H-indazol-5-ylamino)piperidin-1-yl)methyl)-2-methylphenoxy)ethanol], for which the “log10AUC (penh)” value in data set [1] (15 μmol/kg intraperitoneal) is given as 1.9042. Further, the “airway hyperreactivity” value in data set [4] is given as “prevention of airway hyperreactivity”. For the same compound, the “Percent inhibition, ERK2” value on ERK2 (1 μM test compound) is 104%. In addition, the “Percent inhibition, ERK2” value at ERK2 (10 μM test compound) is reported as 92%. Moreover, in the data set on rat trachea rings, the “Percentage … at 1 μM compound, Avg %” value was determined as 40.3% and the “Trachael Ring Contraction, %” value amounted to 40%.
